Test results as given in paper PMC6154679, “Nine Different Chemical Species and Action Mechanisms of Pancreatic Lipase Ligands Screened Out from Forsythia suspensa Leaves All at One Time” (Molecules : A Journal of Synthetic Chemistry and Natural …, 2017).

Molecular target: T1, pancreatic lipase (PL) (Sus scrofa, UniProt P00591)
T1 construct: gene PNLIP
T1 sequence (P00591 1-450): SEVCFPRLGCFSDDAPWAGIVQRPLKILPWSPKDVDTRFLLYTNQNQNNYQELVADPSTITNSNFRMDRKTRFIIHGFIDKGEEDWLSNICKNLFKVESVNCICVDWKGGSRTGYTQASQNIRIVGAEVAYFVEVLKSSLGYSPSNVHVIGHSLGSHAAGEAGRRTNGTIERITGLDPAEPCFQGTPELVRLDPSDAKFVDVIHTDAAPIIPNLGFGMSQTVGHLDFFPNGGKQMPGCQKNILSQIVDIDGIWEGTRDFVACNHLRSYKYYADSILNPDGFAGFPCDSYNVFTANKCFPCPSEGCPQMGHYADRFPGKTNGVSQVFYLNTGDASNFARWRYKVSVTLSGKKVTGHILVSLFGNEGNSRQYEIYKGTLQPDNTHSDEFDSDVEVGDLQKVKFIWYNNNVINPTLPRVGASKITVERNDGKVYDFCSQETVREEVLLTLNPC
Assay: pNPB hydrolysis assay, inhibition rate at […]
Assay type: biochemical
Conditions: read-out: % inhibition at 5 μg/mL

For CCCCCCCCCCC[C@@H](C[C@@H]1OC(=O)[C@H]1CCCCCC)OC(=O)[C@H](CC(C)C)NC=O [Orlistat], the inhibition at 5 µg/mL was 58%.
